{"source": "ChEMBL document CHEMBL1129630", "about": "“Synthesis and structure-activity relationships of retinoid X receptor selective diaryl sulfide analogs of retinoic acid” (J Med Chem, 1996)", "system": "HL-60", "experiment": "Induction of transglutaminase (TGase) activity in HL-60 cells", "details": "Homo sapiens"}
{"smiles": "C/C(=C\\c1ccc(C(=O)O)cc1)c1ccc2c(c1)C(C)(C)CCC2(C)C", "values": [{"measurement": "EC50", "result": "> 1", "unit": "µM"}]}
